Test results from ChEMBL document CHEMBL1201862, “PubChem BioAssay data set” (2004).
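Where inhibition never reached the appropriate level, the endpoint shown equals the highest concentration tested. Otherwise, values were interpolated linearly from a five-concentration, 48-hour dose response in 96-well plates. GI50 = concentration required for 50% inhibition of growth.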 Active and inactive are the calls of the source. Cut-off read from the data, not from the text of the source: active = GI50 up to about 1.1 µM and inactive = higher.

Assays:
Experiment in all cases: inhibition of tumour cell growth, NCI panel, 48 h
A549 = test system: A549
SF-539 = test system: SF-539
MDA-N = test system: MDA-N
NCI/ADR-RES = test system: NCI/ADR-RES
SK-MEL-2 = test system: SK-MEL-2
LOX IMVI = test system: LOX IMVI
A498 = test system: A498
SW-620 = test system: SW-620
SK-MEL-28 = test system: SK-MEL-28
UACC-62 = test system: UACC-62
MOLT-4 = test system: MOLT-4
SK-OV-3 = test system: SK-OV-3
COLO 205 = test system: COLO 205
CCRF-CEM = test system: CCRF-CEM
UO-31 = test system: UO-31
Hs-578T = test system: Hs-578T
RPMI-8226 = test system: RPMI-8226
MDA-MB-231 = test system: MDA-MB-231
MDA-MB-435 = test system: MDA-MB-435
NCI-H460 = test system: NCI-H460
IGROV-1 = test system: IGROV-1
Malme-3M = test system: Malme-3M
TK-10 = test system: TK-10
BT-549 = test system: BT-549
OVCAR-3 = test system: OVCAR-3
SF-268 = test system: SF-268
HCT-15 = test system: HCT-15
SK-MEL-5 = test system: SK-MEL-5
NCI-H226 = test system: NCI-H226
M14 = test system: M14
SN12C = test system: SN12C
786-0 = test system: 786-0
SF-295 = test system: SF-295
EKVX = test system: EKVX
U-251 = test system: U-251
HL-60 = test system: HL-60
RXF 393 = test system: RXF 393
OVCAR-4 = test system: OVCAR-4
PC-3 = test system: PC-3
K562 = test system: K562
HOP-92 = test system: HOP-92
HCC 2998 = test system: HCC 2998
OVCAR-5 = test system: OVCAR-5
OVCAR-8 = test system: OVCAR-8
T47D = test system: T47D
DU-145 = test system: DU-145
CAKI-1 = test system: CAKI-1
SR = test system: SR
KM12 = test system: KM12
HCT-116 = test system: HCT-116
MCF7 = test system: MCF7
NCI-H23 = test system: NCI-H23
ACHN = test system: ACHN
HOP-62 = test system: HOP-62
SNB-19 = test system: SNB-19
UACC-257 = test system: UACC-257
HT-29 = test system: HT-29
SNB-75 = test system: SNB-75
NCI-H522 = test system: NCI-H522

In the case of `CCC1(c2ccc(N3C(=O)c4cc(OC)c(OC)cc4C3=O)cc2)CCC(=O)NC1=O` (stereo not drawn), the GI50 (A549) is reported as > 10 µM (inactive), the GI50 (SF-539) is reported as > 10 µM (inactive) and the GI50 (MDA-N) is reported as > 10 µM (inactive). The GI50 (NCI/ADR-RES) was > 10 µM (inactive), the GI50 (SK-MEL-2) was > 10 µM (inactive) and the GI50 (LOX IMVI) was > 10 µM (inactive). For the same compound, the GI50 (A498) was > 10 µM (inactive), the GI50 (SW-620) was > 10 µM (inactive) and the GI50 (SK-MEL-28) was > 10 µM (inactive). The GI50 (UACC-62) was > 10 µM (inactive), the GI50 (MOLT-4) was > 10 µM (inactive) and the GI50 (SK-OV-3) was > 10 µM (inactive). For the same compound, the GI50 (COLO 205) was > 10 µM (inactive), the GI50 (CCRF-CEM) was > 10 µM (inactive) and the GI50 (UO-31) was > 10 µM (inactive). For the same compound, the GI50 (Hs-578T) was > 10 µM (inactive), the GI50 (RPMI-8226) was > 10 µM (inactive) and the GI50 (MDA-MB-231) was > 10 µM (inactive). For the same compound, the GI50 (MDA-MB-435) was > 10 µM (inactive), the GI50 (NCI-H460) was > 10 µM (inactive) and the GI50 (IGROV-1) was > 10 µM (inactive). For the same compound, the GI50 (Malme-3M) was > 10 µM (inactive), the GI50 (TK-10) was > 10 µM (inactive) and the GI50 (BT-549) was > 10 µM (inactive). The GI50 (OVCAR-3) was > 10 µM (inactive), the GI50 (SF-268) was > 10 µM (inactive) and the GI50 (HCT-15) was over 10 µM. For the same compound, the GI50 (SK-MEL-5) was > 10 µM (inactive), the GI50 (NCI-H226) was > 10 µM (inactive) and the GI50 (M14) was > 10 µM (inactive). The GI50 (SN12C) was > 10 µM (inactive), the GI50 (786-0) was > 10 µM (inactive) and the GI50 (SF-295) was > 10 µM (inactive). The GI50 (EKVX) was > 10 µM (inactive), the GI50 (U-251) was > 10 µM (inactive) and the GI50 (HL-60) was > 10 µM (inactive). For the same compound, the GI50 (RXF 393) was > 10 µM (inactive), the GI50 (OVCAR-4) was > 10 µM (inactive) and the GI50 (PC-3) was > 10 µM (inactive). The GI50 (K562) was > 10 µM (inactive), the GI50 (HOP-92) was > 10 µM (inactive) and the GI50 (HCC 2998) was > 10 µM (inactive). The GI50 (OVCAR-5) was > 10 µM (inactive), the GI50 (OVCAR-8) was > 10 µM (inactive) and the GI50 (T47D) was > 10 µM (inactive). For the same compound, the GI50 (DU-145) was > 10 µM (inactive), the GI50 (CAKI-1) was > 10 µM (inactive) and the GI50 (SR) was > 10 µM (inactive). For the same compound, the GI50 (KM12) was > 10 µM (inactive), the GI50 (HCT-116) was > 10 µM (inactive) and the GI50 (MCF7) was > 10 µM (inactive). For the same compound, the GI50 (NCI-H23) was > 10 µM (inactive), the GI50 (ACHN) was > 10 µM (inactive) and the GI50 (HOP-62) was > 10 µM (inactive). The GI50 (SNB-19) was > 10 µM (inactive), the GI50 (UACC-257) was > 10 µM (inactive) and the GI50 (HT-29) was > 10 µM (inactive).
With `COc1cccc2[nH]c(-c3ccccn3)nc12` the GI50 (A549) was > 100 µM (inactive), the GI50 (SF-539) was > 100 µM (inactive) and the GI50 (MDA-N) was > 100 µM (inactive). For the same compound, the GI50 (NCI/ADR-RES) was 14.3 µM (inactive), the GI50 (SK-MEL-2) was > 100 µM (inactive) and the GI50 (LOX IMVI) was > 100 µM (inactive). The GI50 (A498) was > 100 µM (inactive), the GI50 (SW-620) was > 100 µM (inactive) and the GI50 (SK-MEL-28) was > 100 µM (inactive). The GI50 (UACC-62) was > 100 µM (inactive), the GI50 (SK-OV-3) was > 100 µM (inactive) and the GI50 (COLO 205) was > 100 µM (inactive). For the same compound, the GI50 (UO-31) was 44.8 µM (inactive), the GI50 (SNB-75) was > 100 µM (inactive) and the GI50 (Hs-578T) was 68.9 µM (inactive). For the same compound, the GI50 (RPMI-8226) was 32.4 µM (inactive), the GI50 (MDA-MB-231) was > 100 µM (inactive) and the GI50 (MDA-MB-435) was > 100 µM (inactive). The GI50 (NCI-H460) was 86.7 µM (inactive), the GI50 (IGROV-1) was > 100 µM (inactive) and the GI50 (Malme-3M) was > 100 µM (inactive). For the same compound, the GI50 (TK-10) was > 100 µM (inactive), the GI50 (BT-549) was > 100 µM (inactive) and the GI50 (OVCAR-3) was 55.7 µM (inactive). For the same compound, the GI50 (SF-268) was 72.4 µM (inactive), the GI50 (HCT-15) was 55.7 µM and the GI50 (SK-MEL-5) was > 100 µM (inactive). The GI50 (NCI-H226) was > 100 µM (inactive), the GI50 (M14) was > 100 µM (inactive) and the GI50 (SN12C) was > 100 µM (inactive). For the same compound, the GI50 (NCI-H522) was 48.9 µM (inactive), the GI50 (786-0) was > 100 µM (inactive) and the GI50 (SF-295) was 52.6 µM (inactive). The GI50 (EKVX) was > 100 µM (inactive), the GI50 (U-251) was > 100 µM (inactive) and the GI50 (RXF 393) was > 100 µM (inactive). The GI50 (OVCAR-4) was > 100 µM (inactive), the GI50 (PC-3) was > 100 µM (inactive) and the GI50 (K562) was > 100 µM (inactive). The GI50 (HOP-92) was > 100 µM (inactive), the GI50 (HCC 2998) was > 100 µM (inactive) and the GI50 (OVCAR-5) was > 100 µM (inactive). For the same compound, the GI50 (OVCAR-8) was > 100 µM (inactive), the GI50 (T47D) was > 100 µM (inactive) and the GI50 (DU-145) was > 100 µM (inactive). For the same compound, the GI50 (CAKI-1) was 77.6 µM (inactive), the GI50 (SR) was > 100 µM (inactive) and the GI50 (KM12) was > 100 µM (inactive). The GI50 (HCT-116) was > 100 µM (inactive), the GI50 (MCF7) was > 100 µM (inactive) and the GI50 (NCI-H23) was > 100 µM (inactive). For the same compound, the GI50 (ACHN) was 56.2 µM (inactive), the GI50 (HOP-62) was 74 µM (inactive) and the GI50 (SNB-19) was > 100 µM (inactive). The GI50 (UACC-257) was > 100 µM (inactive) and the GI50 (HT-29) was > 100 µM (inactive).
